Literature values, collected in patent US20230017920A1, “SHELF-STABLE HYPOCHLOROUS ACID” (priority 2019, published 2023).

System: individual bacterial cells
Details: various studies, H Park et al., Int J Food Microbiol 91 (2004) 13-18

In the case of `OCl` [HOCl, hypochlorous acid], the “time to kill individual bacterial cells” value is given as “within seconds”.
